In ChEMBL document CHEMBL1201862, “PubChem BioAssay data set” (2004):
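Each compound was tested at five concentrations against cells in 96-well plates for 48 hours. Abbreviation: GI50, concentration required for 50% inhibition of growth.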 The source made the active and inactive calls. Cut-off read from the data, not from the text of the source: active = GI50 up to about 1.1 µM and inactive = higher.

Tests used:
Assay in all cases: inhibition of tumour cell growth, NCI panel, 48 h
COLO 205 = tested on: COLO 205
U-251 = tested on: U-251
SN12C = tested on: SN12C
HCT-15 = tested on: HCT-15
MDA-MB-231 = tested on: MDA-MB-231
RPMI-8226 = tested on: RPMI-8226
OVCAR-5 = tested on: OVCAR-5
KM12 = tested on: KM12
LOX IMVI = tested on: LOX IMVI
K562 = tested on: K562
Malme-3M = tested on: Malme-3M
CCRF-CEM = tested on: CCRF-CEM
SK-OV-3 = tested on: SK-OV-3
CAKI-1 = tested on: CAKI-1
NCI-H23 = tested on: NCI-H23
OVCAR-8 = tested on: OVCAR-8
NCI-H522 = tested on: NCI-H522
UACC-257 = tested on: UACC-257
MDA-MB-435 = tested on: MDA-MB-435

Compound | GI50 (COLO 205) | GI50 (U-251) | GI50 (SN12C) | GI50 (HCT-15) | GI50 (MDA-MB-231) | GI50 (RPMI-8226) | GI50 (OVCAR-5) | GI50 (KM12) | GI50 (LOX IMVI) | GI50 (K562) | GI50 (Malme-3M) | GI50 (CCRF-CEM) | GI50 (SK-OV-3) | GI50 (CAKI-1) | GI50 (NCI-H23) | GI50 (OVCAR-8) | GI50 (NCI-H522) | GI50 (UACC-257) | GI50 (MDA-MB-435)
CCc1ccc(CCN2CCCCC2)nc1 | > 100 µM (inactive) | > 100 µM (inactive) | > 100 µM (inactive) | > 100 µM | > 100 µM (inactive) | 96.8 µM (inactive) | > 100 µM (inactive) | > 100 µM (inactive) | > 100 µM (inactive) | > 100 µM (inactive) | > 100 µM (inactive) | > 100 µM (inactive) | > 100 µM (inactive) | > 100 µM (inactive) | > 100 µM (inactive) | > 100 µM (inactive) | 52.1 µM (inactive) | > 100 µM (inactive) | > 100 µM (inactive)
CC(=O)N(CC(=O)C(=O)NNc1ccoc1)c1ccc(Cl)cc1 | > 100 µM (inactive) | > 100 µM (inactive) | > 100 µM (inactive) | 50.5 µM | > 100 µM (inactive) | > 100 µM (inactive) | > 100 µM (inactive) | > 100 µM (inactive) | > 100 µM (inactive) | 91.4 µM (inactive) | > 100 µM (inactive) | 31.9 µM (inactive) | > 100 µM (inactive) | > 100 µM (inactive) | > 100 µM (inactive) | > 100 µM (inactive) | > 100 µM (inactive) | > 100 µM (inactive) | > 100 µM (inactive)
CC(=O)Nc1ccc(-c2nc3cc(Cl)ccc3o2)cc1 | > 50 µM (inactive) | 45.7 µM (inactive) | > 50 µM (inactive) | > 50 µM | > 50 µM (inactive) | > 50 µM (inactive) | > 50 µM (inactive) | > 50 µM (inactive) | > 50 µM (inactive) | > 50 µM (inactive) | > 50 µM (inactive) | > 50 µM (inactive) | > 50 µM (inactive) | > 50 µM (inactive) | > 50 µM (inactive) | > 50 µM (inactive) | > 50 µM (inactive) | > 50 µM (inactive) | > 50 µM (inactive)
O=[N+]([O-])c1ccc(CSc2nncc3[nH]cnc23)cc1 | > 100 µM (inactive) | > 100 µM (inactive) | > 100 µM (inactive) | > 100 µM | > 100 µM (inactive) | > 100 µM (inactive) | > 100 µM (inactive) | > 100 µM (inactive) | > 100 µM (inactive) | 84.9 µM (inactive) | 66.8 µM (inactive) | > 100 µM (inactive) | > 100 µM (inactive) | > 100 µM (inactive) | > 100 µM (inactive) | > 100 µM (inactive) | > 100 µM (inactive) | > 100 µM (inactive) | 93.1 µM (inactive)
CN1CCc2[nH]nc(-c3n[nH]c4c3CN(C)CC4)c2C1 | > 100 µM (inactive) | > 100 µM (inactive) | > 100 µM (inactive) | > 100 µM | > 100 µM (inactive) | > 100 µM (inactive) | > 100 µM (inactive) | > 100 µM (inactive) | > 100 µM (inactive) | > 100 µM (inactive) | > 100 µM (inactive) | 72.8 µM (inactive) | > 100 µM (inactive) | > 100 µM (inactive) | > 100 µM (inactive) | > 100 µM (inactive) | > 100 µM (inactive) | > 100 µM (inactive) | > 100 µM (inactive)
O=C(C=P(c1ccccc1)(c1ccccc1)c1ccccc1)c1ccc(-c2cccc([N+](=O)[O-])c2)s1 | 14 µM (inactive) | 75.2 µM (inactive) | 68.7 µM (inactive) | 41.1 µM | > 100 µM (inactive) | 19.5 µM (inactive) | > 100 µM (inactive) | 42 µM (inactive) | 67 µM (inactive) | 37 µM (inactive) | 81.7 µM (inactive) | 30.6 µM (inactive) | 36.1 µM (inactive) | 35.2 µM (inactive) | 77.6 µM (inactive) | 47.3 µM (inactive) | 23.7 µM (inactive) |  | 51.5 µM (inactive)
CCCC(=O)OC[n+]1cccc(-c2c(COC(=O)NC(C)C)c(COC(=O)NC(C)C)c3n2CCC3)c1 | 73.3 µM (inactive) | > 60.7 µM (inactive) | 37.8 µM (inactive) | > 93.3 µM | > 74.8 µM (inactive) | 32.3 µM (inactive) | 97.7 µM (inactive) | > 100 µM (inactive) | 35.2 µM (inactive) | 50.8 µM (inactive) | 66.5 µM (inactive) | 9.98 µM (inactive) | > 100 µM (inactive) | 8.51 µM (inactive) | 34.8 µM (inactive) | 55.7 µM (inactive) | 30.4 µM (inactive) | > 100 µM (inactive) | 98.2 µM (inactive)
CC(C)(C)OC(=O)NCCCCC(N)NC(=O)c1ccccc1 (centres undefined) | > 100 µM (inactive) | > 100 µM (inactive) | > 100 µM (inactive) | > 100 µM | > 100 µM (inactive) | > 100 µM (inactive) | > 100 µM (inactive) | > 100 µM (inactive) | > 100 µM (inactive) | > 100 µM (inactive) | > 100 µM (inactive) | > 100 µM (inactive) | > 100 µM (inactive) | > 100 µM (inactive) | > 100 µM (inactive) | > 100 µM (inactive) | > 100 µM (inactive) | > 100 µM (inactive) | > 100 µM (inactive)
C=CCc1cccc2cc(C(=O)NC3CCCCC3)c(=N)oc12 | 16.7 µM (inactive) | 27.2 µM (inactive) | 14.9 µM (inactive) | 14.1 µM | 16 µM (inactive) | 45.6 µM (inactive) | 17.9 µM (inactive) | 16.9 µM (inactive) | 15.4 µM (inactive) | > 100 µM (inactive) | > 100 µM (inactive) | 17.5 µM (inactive) | 24 µM (inactive) | 16.8 µM (inactive) | 19.9 µM (inactive) | 32.6 µM (inactive) | > 100 µM (inactive) | 25.1 µM (inactive) | 20.7 µM (inactive)
O=C(c1c2c(cc3c1CC1(Cc4cc5c(cc4C1)CCCC5)C3)CCCC2)C(Br)Br | 13.2 µM (inactive) | 16.2 µM (inactive) | 18.6 µM (inactive) | 16.1 µM | 17.4 µM (inactive) | 5.04 µM (inactive) | 22.9 µM (inactive) | 22.1 µM (inactive) | 1.79 µM (inactive) | 4.31 µM (inactive) | 3.53 µM (inactive) | 1.6 µM (inactive) | 21.4 µM (inactive) | 11.3 µM (inactive) | 14.6 µM (inactive) | 15 µM (inactive) | 1.65 µM (inactive) | 19.9 µM (inactive) | 14 µM (inactive)
NS(=O)(=O)c1nnc(NC(=O)Nc2ccc(Cl)c(Cl)c2)s1 | 13.9 µM (inactive) | 29.4 µM (inactive) | 19.3 µM (inactive) | 21.2 µM | 25.9 µM (inactive) | 17.5 µM (inactive) | 24.5 µM (inactive) | 26.9 µM (inactive) | 18.2 µM (inactive) | 31.3 µM (inactive) | 17.6 µM (inactive) | 14.3 µM (inactive) | 20.6 µM (inactive) | 25.9 µM (inactive) | 18 µM (inactive) | 20.4 µM (inactive) | 11.7 µM (inactive) | 16.5 µM (inactive) | 20.3 µM (inactive)
N#Cc1nc(-c2cccnc2)oc1N | > 100 µM (inactive) | > 100 µM (inactive) | > 100 µM (inactive) | > 100 µM | > 100 µM (inactive) | > 100 µM (inactive) | > 100 µM (inactive) | > 100 µM (inactive) | > 100 µM (inactive) | > 100 µM (inactive) | > 100 µM (inactive) | > 100 µM (inactive) | > 100 µM (inactive) | > 100 µM (inactive) |  |  | > 100 µM (inactive) | > 100 µM (inactive) | > 100 µM (inactive)
CCN(CC)c1ccc2cc(C(=O)Nc3cccc4ccccc34)c(=N)oc2c1 | > 100 µM (inactive) | 48.4 µM (inactive) | > 100 µM (inactive) | > 100 µM | > 100 µM (inactive) | > 100 µM (inactive) | > 100 µM (inactive) | > 100 µM (inactive) | > 100 µM (inactive) | > 100 µM (inactive) | 30.5 µM (inactive) | > 100 µM (inactive) | > 100 µM (inactive) | > 100 µM (inactive) |  | > 100 µM (inactive) | 64 µM (inactive) | > 100 µM (inactive) | 91.8 µM (inactive)
O=C1NC(=O)C(C(c2ccc([N+](=O)[O-])cc2)C2C(=O)NC(=O)NC2=O)C(=O)N1 | > 100 µM (inactive) | > 100 µM (inactive) | > 100 µM (inactive) | > 100 µM | > 100 µM (inactive) | > 100 µM (inactive) | > 100 µM (inactive) | > 100 µM (inactive) | > 100 µM (inactive) | > 100 µM (inactive) | 55.8 µM (inactive) | 62.1 µM (inactive) |  | > 100 µM (inactive) | > 100 µM (inactive) | > 100 µM (inactive) | > 100 µM (inactive) | > 100 µM (inactive) | > 100 µM (inactive)
COc1ccc2c(c1)CCC1=C/C(=N\NC(N)=O)CCC12C (centres undefined) | > 10 µM (inactive) | > 10 µM (inactive) | > 10 µM (inactive) | > 10 µM | > 10 µM (inactive) | > 10 µM (inactive) |  | > 10 µM (inactive) | > 10 µM (inactive) | > 10 µM (inactive) | > 10 µM (inactive) | > 10 µM (inactive) | > 10 µM (inactive) | > 10 µM (inactive) | > 10 µM (inactive) | > 10 µM (inactive) | > 10 µM (inactive) | > 10 µM (inactive) | 5.24 µM (inactive)
